Data from ChEMBL document CHEMBL1144852, “Optimization of a dihydropyrrolopyrazole series of transforming growth factor-beta type I receptor kinase domain inhibitors: discovery of an orally bioavailable transforming growth factor-beta receptor type I inhibitor as antitumor agent” (J Med Chem, 2008).
Calls of active or inactive are those of the source. The rule behind the calls is not given here.

Tests used:
[1] = biological target: Mitogen-activated protein kinase 12 (Homo sapiens) (UniProt P53778); test: Inhibition of Sapk3 at 20 uM
Sequence of Mitogen-activated protein kinase 12 (Homo sapiens) (P53778 whole entry): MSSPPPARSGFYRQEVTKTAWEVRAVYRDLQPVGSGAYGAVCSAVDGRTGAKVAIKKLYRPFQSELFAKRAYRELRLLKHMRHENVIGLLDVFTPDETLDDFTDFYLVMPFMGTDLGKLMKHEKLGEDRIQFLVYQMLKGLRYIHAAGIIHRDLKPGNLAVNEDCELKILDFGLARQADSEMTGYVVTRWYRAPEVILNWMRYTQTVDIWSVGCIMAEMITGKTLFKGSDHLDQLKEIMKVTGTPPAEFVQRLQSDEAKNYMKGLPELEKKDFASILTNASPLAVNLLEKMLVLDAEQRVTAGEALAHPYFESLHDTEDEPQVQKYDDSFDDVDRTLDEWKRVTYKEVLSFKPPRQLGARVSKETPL

[2] = biological target: Serine/threonine-protein kinase Chk2 (Homo sapiens) (UniProt O96017); test: Inhibition of Chk2 at 20 uM
Sequence of Serine/threonine-protein kinase Chk2 (Homo sapiens) (O96017 whole entry): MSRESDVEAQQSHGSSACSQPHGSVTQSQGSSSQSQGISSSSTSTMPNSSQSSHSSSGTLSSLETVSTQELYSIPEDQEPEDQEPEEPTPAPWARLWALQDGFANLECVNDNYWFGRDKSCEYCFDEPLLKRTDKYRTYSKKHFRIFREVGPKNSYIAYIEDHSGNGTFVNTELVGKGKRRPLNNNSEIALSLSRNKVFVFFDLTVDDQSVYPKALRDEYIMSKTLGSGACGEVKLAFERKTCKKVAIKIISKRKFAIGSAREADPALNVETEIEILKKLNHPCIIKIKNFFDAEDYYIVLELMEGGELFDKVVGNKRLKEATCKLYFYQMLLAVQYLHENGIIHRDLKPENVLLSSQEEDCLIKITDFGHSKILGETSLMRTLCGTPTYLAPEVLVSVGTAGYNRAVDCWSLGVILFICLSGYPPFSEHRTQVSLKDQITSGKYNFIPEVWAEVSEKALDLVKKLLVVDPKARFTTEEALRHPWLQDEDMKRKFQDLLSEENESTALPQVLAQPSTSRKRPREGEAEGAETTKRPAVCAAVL

[3] = biological target: Mitogen-activated protein kinase 11 (Homo sapiens) (UniProt Q15759); test: Inhibition of Sapk2-beta at 20 uM
[4] = biological target: Ribosomal protein S6 kinase beta-1 (Homo sapiens) (UniProt P23443); test: Inhibition of p70S6K at 20 uM
[5] = Metabolic stability in rat microsomes; assay type: ADME, Microsome
[6] = biological target: Protein kinase C beta type (Homo sapiens) (UniProt P05771); test: Inhibition of PKC-beta-2 at 20 uM
[7] = biological target: Tyrosine-protein kinase Blk (Homo sapiens) (UniProt P51451); test: Inhibition of Blk at 20 uM
Sequence of Tyrosine-protein kinase Blk (Homo sapiens) (P51451 2-505 limits assumed): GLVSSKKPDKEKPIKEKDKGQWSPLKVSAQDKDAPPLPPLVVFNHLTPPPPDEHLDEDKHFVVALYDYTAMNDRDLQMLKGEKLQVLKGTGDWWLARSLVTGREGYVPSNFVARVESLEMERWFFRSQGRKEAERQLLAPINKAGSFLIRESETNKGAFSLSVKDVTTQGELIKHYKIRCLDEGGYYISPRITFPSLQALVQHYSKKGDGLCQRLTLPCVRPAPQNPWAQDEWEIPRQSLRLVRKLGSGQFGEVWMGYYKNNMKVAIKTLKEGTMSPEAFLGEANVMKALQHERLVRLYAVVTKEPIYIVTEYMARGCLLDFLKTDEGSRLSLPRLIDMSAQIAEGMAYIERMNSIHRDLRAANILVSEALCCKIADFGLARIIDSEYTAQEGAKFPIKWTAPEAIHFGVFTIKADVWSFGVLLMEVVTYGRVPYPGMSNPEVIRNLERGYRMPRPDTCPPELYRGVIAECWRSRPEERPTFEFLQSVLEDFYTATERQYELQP

[8] = biological target: Dual specificity mitogen-activated protein kinase kinase 6 (Homo sapiens) (UniProt P52564); test: Inhibition of MKK6 at 20 uM
Sequence of Dual specificity mitogen-activated protein kinase kinase 6 (Homo sapiens) (P52564 whole entry): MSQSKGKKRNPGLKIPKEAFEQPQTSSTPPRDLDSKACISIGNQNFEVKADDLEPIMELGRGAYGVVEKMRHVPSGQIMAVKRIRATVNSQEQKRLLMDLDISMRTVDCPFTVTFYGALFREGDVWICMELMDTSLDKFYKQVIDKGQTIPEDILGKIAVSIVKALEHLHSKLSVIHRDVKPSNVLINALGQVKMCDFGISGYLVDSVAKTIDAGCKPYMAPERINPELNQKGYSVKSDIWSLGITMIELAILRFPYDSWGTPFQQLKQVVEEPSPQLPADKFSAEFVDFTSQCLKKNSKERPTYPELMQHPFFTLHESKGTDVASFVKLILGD

[9] = biological target: RAF proto-oncogene serine/threonine-protein kinase (Homo sapiens) (UniProt P04049); test: Inhibition of cRaf at 20 uM
[10] = biological target: Dual specificity mitogen-activated protein kinase kinase 7 (Homo sapiens) (UniProt O14733); test: Inhibition of MKK7-beta at 20 uM
[11] = biological target: Serine/threonine-protein kinase Sgk1 (Homo sapiens) (UniProt O00141); test: Inhibition of SGK at 20 uM
Sequence of Serine/threonine-protein kinase Sgk1 (Homo sapiens) (O00141 whole entry): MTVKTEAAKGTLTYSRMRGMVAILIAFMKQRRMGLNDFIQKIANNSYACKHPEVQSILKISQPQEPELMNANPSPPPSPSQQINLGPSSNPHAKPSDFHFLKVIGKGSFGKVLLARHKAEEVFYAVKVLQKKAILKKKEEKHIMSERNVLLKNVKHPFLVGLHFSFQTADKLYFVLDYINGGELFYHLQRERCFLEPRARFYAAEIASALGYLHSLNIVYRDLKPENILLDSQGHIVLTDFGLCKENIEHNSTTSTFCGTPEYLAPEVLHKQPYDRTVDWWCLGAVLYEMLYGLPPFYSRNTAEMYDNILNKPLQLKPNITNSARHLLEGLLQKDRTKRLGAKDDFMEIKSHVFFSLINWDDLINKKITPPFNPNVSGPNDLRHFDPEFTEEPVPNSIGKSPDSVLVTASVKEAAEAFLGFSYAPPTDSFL

[12] = biological target: Dual specificity mitogen-activated protein kinase kinase 4 (Homo sapiens) (UniProt P45985); test: Inhibition of MKK4 at 20 uM
[13] = biological target: MAP kinase-activated protein kinase 5 (Homo sapiens) (UniProt Q8IW41); test: Inhibition of PRAK at 20 uM
[14] = biological target: 5'-AMP-activated protein kinase subunit beta-1 (Homo sapiens) (UniProt Q9Y478); test: Inhibition of AMPK at 20 uM
[15] = AUC in rat at 10 mg/kg, po after 24 hrs; assay type: ADME, organism-based; parameters: time < 24 hr, dose 10 mg/kg, route oral; settings: plasma
Mus musculus [16] = test: Inhibition of TGFbeta type receptor 1 in orally dosed human Calu6 cells xenografted mouse by IVTI […] assay; assay type: functional, organism-based; settings: Calu-6
[17] = Inhibition of CaMK2 at 20 uM
[18] = biological target: Tyrosine-protein kinase Fyn (Homo sapiens) (UniProt P06241); test: Inhibition of Fyn at 20 uM
[19] = biological target: Protein kinase C delta type (Homo sapiens) (UniProt Q05655); test: Inhibition of PKCdelta at 20 uM
Sequence of Protein kinase C delta type (Homo sapiens) (Q05655 whole entry, looked up): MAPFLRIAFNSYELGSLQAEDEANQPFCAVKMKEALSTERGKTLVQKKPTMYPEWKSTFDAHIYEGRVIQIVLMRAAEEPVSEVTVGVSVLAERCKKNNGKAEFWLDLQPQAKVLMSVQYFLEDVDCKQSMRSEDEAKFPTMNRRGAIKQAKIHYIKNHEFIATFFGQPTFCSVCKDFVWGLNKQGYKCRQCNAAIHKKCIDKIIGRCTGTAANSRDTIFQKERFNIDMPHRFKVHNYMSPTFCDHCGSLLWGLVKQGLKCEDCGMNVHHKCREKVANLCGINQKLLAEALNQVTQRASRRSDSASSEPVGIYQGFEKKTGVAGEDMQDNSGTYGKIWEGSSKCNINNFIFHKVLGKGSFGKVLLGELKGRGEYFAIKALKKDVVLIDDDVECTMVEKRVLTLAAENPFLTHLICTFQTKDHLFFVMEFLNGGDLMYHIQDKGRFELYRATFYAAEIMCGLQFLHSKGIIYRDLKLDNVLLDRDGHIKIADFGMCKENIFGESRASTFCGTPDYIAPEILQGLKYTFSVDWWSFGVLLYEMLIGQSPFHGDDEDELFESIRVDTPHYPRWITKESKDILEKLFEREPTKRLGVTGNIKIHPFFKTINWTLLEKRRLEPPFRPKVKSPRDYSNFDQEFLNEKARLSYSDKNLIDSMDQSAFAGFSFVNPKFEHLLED

MX1 = test: Effect on tumor growth delay in human MX1 cells xenografted in mouse administered 75 mg/kg, po twice a day after 7 days of inoculation for 20 days; assay type: functional, organism-based; parameters: dose 75 mg/kg
[20] = Inhibition of CK2 at 20 uM
[21] = biological target: Serine/threonine-protein kinase Chk1 (Homo sapiens) (UniProt O14757); test: Inhibition of Chk1 at 20 uM
Sequence of Serine/threonine-protein kinase Chk1 (Homo sapiens) (O14757 whole entry): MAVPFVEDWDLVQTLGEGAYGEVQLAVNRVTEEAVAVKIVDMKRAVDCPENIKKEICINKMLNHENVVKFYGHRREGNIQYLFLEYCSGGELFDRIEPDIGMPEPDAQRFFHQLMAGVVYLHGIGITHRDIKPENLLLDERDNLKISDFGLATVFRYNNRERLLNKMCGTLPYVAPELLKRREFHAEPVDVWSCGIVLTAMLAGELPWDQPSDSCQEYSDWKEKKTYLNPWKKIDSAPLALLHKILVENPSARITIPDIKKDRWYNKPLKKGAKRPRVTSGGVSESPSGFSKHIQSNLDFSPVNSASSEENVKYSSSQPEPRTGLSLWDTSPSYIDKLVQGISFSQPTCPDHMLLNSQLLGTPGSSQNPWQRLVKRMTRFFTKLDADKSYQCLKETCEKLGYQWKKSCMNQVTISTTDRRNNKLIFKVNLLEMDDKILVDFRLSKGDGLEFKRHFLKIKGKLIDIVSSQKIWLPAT

[22] = biological target: Cyclin-dependent kinase 2 (Homo sapiens) (UniProt P24941); test: Inhibition of CDK2 at 20 uM
[23] = biological target: Glycogen synthase kinase-3 beta (Homo sapiens) (UniProt P49841); test: Inhibition of GSK3-beta at 20 uM
[24] = biological target: Serine/threonine-protein kinase N2 (Homo sapiens) (UniProt Q16513); test: Inhibition of PRK2 at 20 uM
[25] = biological target: RAC-alpha serine/threonine-protein kinase (Homo sapiens) (UniProt P31749); test: Inhibition of PKBalpha at 20 uM
[26] = biological target: Fibroblast growth factor receptor 3 (Homo sapiens) (UniProt P22607); test: Inhibition of FGFR3 at 20 uM
[27] = biological target: Tyrosine-protein kinase Lck (Homo sapiens) (UniProt P06239); test: Inhibition of Lck at 20 uM
Sequence of Tyrosine-protein kinase Lck (Homo sapiens) (P06239 2-509 limits assumed): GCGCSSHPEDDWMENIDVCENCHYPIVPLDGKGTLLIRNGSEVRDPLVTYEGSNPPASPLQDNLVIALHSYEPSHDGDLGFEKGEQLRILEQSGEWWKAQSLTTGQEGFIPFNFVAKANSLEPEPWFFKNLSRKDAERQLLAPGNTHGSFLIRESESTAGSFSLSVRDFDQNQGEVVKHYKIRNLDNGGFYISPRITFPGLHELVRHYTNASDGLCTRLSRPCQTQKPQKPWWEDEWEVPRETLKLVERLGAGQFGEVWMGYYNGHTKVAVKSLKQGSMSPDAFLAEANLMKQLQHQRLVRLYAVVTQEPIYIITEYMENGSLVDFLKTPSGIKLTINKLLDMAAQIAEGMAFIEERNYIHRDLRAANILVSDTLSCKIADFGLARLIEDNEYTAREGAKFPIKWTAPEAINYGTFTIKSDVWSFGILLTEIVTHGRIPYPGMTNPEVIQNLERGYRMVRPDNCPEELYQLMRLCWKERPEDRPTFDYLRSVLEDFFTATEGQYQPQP

[28] = Oral bioavailability in rat at 10 mg/kg after 24 hrs; assay type: ADME, organism-based; settings: in vivo
[29] = biological target: Mitogen-activated protein kinase 14 (Homo sapiens) (UniProt Q16539); test: Inhibition of Sapk2-alpha at 20 uM
Sequence of Mitogen-activated protein kinase 14 (Homo sapiens) (Q16539 whole entry): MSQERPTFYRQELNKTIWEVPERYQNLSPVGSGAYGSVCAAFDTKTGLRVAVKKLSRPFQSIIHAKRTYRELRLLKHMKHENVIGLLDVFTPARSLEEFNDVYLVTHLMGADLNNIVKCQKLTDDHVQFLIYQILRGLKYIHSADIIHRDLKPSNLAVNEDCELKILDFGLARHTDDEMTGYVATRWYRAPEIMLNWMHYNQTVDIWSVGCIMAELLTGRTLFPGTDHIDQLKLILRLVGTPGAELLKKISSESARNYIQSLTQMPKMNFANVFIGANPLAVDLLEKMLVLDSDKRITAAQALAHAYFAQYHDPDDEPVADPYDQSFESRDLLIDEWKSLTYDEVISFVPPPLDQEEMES

[30] = biological target: Mitogen-activated protein kinase 9 (Homo sapiens) (UniProt P45984); test: Inhibition of JNK2-alpha-2 at 20 uM
Sequence of Mitogen-activated protein kinase 9 (Homo sapiens) (P45984 whole entry, looked up): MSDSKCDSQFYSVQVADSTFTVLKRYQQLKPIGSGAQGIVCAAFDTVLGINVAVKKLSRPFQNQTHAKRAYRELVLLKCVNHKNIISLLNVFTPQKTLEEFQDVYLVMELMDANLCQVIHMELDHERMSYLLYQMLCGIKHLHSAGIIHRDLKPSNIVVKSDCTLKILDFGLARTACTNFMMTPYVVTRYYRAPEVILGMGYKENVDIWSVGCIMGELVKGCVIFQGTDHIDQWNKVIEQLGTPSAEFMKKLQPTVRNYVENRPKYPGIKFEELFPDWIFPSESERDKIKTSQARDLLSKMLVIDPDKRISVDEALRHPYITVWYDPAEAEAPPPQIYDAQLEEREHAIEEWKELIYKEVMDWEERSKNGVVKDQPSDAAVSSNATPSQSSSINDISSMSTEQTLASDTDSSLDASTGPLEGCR

[31] = biological target: Mitogen-activated protein kinase 13 (Homo sapiens) (UniProt O15264); test: Inhibition of Sapk4 at 20 uM
[32] = biological target: Protein kinase C alpha type (Homo sapiens) (UniProt P17252); test: Inhibition of PKCalpha at 20 uM
[33] = biological target: Proto-oncogene tyrosine-protein kinase Src (Homo sapiens) (UniProt P12931); test: Inhibition of cSRC at 20 uM
Mus musculus [34] = test: Inhibition of TGFbeta type receptor 1 in human Calu6 cells xenografted mouse at 75 mg/kg, po after 4 hrs by IVTI pharmacodynamic assay; assay type: functional; settings: Calu-6, 4 h
[35] = biological target: Cyclin-dependent kinase 1 (Homo sapiens) (UniProt P06493); test: Inhibition of CDK1 at 20 uM
Sequence of Cyclin-dependent kinase 1 (Homo sapiens) (P06493 whole entry, looked up): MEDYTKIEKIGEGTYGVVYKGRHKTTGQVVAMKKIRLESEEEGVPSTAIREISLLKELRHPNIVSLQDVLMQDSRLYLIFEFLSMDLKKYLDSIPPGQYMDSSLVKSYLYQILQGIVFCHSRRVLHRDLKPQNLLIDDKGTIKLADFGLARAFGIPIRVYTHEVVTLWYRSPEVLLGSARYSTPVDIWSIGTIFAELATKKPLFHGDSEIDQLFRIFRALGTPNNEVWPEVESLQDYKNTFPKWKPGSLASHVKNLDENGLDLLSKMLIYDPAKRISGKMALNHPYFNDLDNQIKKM

[36] = biological target: Mitogen-activated protein kinase 10 (Homo sapiens) (UniProt P53779); test: Inhibition of JNK3 at 20 uM
[37] = biological target: Vascular endothelial growth factor receptor 2 (Homo sapiens) (UniProt P35968); test: Inhibition of KDR at 20 uM
[38] = Inhibition of PKA at 20 uM
NIH3T3 = test: Antiproliferative activity against mouse NIH3T3 cells by [3H]thymidine assay; assay type: functional, cell-based
[39] = Inhibition of JNK1-alpha at 20 uM
[40] = biological target: Tyrosine-protein kinase ZAP-70 (Homo sapiens) (UniProt P43403); test: Inhibition of ZAP70 at 20 uM
[41] = biological target: Ribosomal protein S6 kinase alpha-5 (Homo sapiens) (UniProt O75582); test: Inhibition of MSK1 at 20 uM
[42] = biological target: Mitogen-activated protein kinase 1 (Homo sapiens) (UniProt P28482); test: Inhibition of MAPK1 at 20 uM
Liver microsomes = test: Metabolic stability in human liver microsomes; assay type: ADME, Microsome
Mus musculus [43] = test: Inhibition of TGFbeta type receptor 1 in human Calu6 cells xenografted mouse at 50 mg/kg, po by single point IVTI assay; assay type: functional, Calu-6; parameters: scale not given: the % may be the effect or the level left
Caco-2 = test: Permeability from apical to basolateral side of human Caco-2 cell membrane; assay type: ADME, cell-based
[44] = biological target: Dual specificity mitogen-activated protein kinase kinase 1 (Homo sapiens) (UniProt Q02750); test: Inhibition of Mek1 at 20 uM
[45] = biological target: MAP kinase-activated protein kinase 2 (Homo sapiens) (UniProt P49137); test: Inhibition of MAPKAPK2 at 20 uM
[46] = biological target: Rho-associated protein kinase 2 (Homo sapiens) (UniProt O75116); test: Inhibition of Rock2 at 20 uM
[47] = AUC in rat at 10 mg/kg, po; assay type: ADME, organism-based; parameters: dose 10 mg/kg, route oral; settings: plasma

SMILES: c1ccc(-c2nn3c(c2-c2ccnc4cc(OCCN5CCOCC5)ccc24)CCC3)nc1
- inhibition [1]: < 50%
- inhibition [2]: < 50%
- inhibition [3]: 47%
- inhibition [4]: < 50%
- Stability [5]: 58%
- inhibition [6]: < 50%
- inhibition [7]: < 50%
- inhibition [8]: 80%
- inhibition [9]: < 50%
- inhibition [10]: < 50%
- inhibition [11]: < 50%
- inhibition [12]: < 50%
- inhibition [13]: < 50%
- inhibition [14]: < 50%
- AUC at 24 h [15]: 1000 ng·h/mL
- EC50 (Mus musculus [16]): 236 nM
- inhibition [17]: < 50%
- inhibition [18]: 58%
- inhibition [19]: < 50%
- Activity (MX1): Active
- inhibition [20]: < 50%
- inhibition [21]: < 50%
- inhibition [22]: < 50%
- inhibition [23]: < 50%
- inhibition [24]: < 50%
- inhibition [25]: < 50%
- inhibition [26]: < 50%
- inhibition [27]: 69%
- bioavailability [28]: 21%
- inhibition [29]: 89%
- inhibition [30]: < 50%
- inhibition [31]: < 50%
- inhibition [32]: < 50%
- inhibition [33]: < 50%
- inhibition in vivo at 75 mg/kg (Mus musculus [34]): 48%
- inhibition [35]: < 50%
- inhibition [36]: 68%
- inhibition [37]: < 50%
- inhibition [38]: < 50%
- IC50 (NIH3T3): 210 nM
- inhibition [39]: < 50%
- inhibition [40]: < 50%
- inhibition [41]: < 50%
- inhibition [42]: 31%
- Stability (Liver microsomes): 27%
- Activity (Mus musculus [43]): 56%
- permeability (Caco-2): 28%
- inhibition [44]: < 50%
- inhibition [45]: < 50%
- inhibition [46]: < 50%

SMILES: CN(C)CCOc1ccc2c(-c3c(-c4ccccn4)nn4c3CCC4)ccnc2c1
- inhibition [1]: < 50%
- inhibition [2]: < 50%
- inhibition [3]: 29%
- inhibition [4]: < 50%
- Stability [5]: 60%
- inhibition [6]: < 50%
- inhibition [7]: < 50%
- inhibition [8]: 62%
- inhibition [9]: < 50%
- inhibition [10]: < 50%
- inhibition [11]: < 50%
- inhibition [12]: < 50%
- inhibition [13]: < 50%
- inhibition [14]: < 50%
- EC50 (Mus musculus [16]): 310 nM
- inhibition [17]: < 50%
- inhibition [18]: 18%
- inhibition [19]: < 50%
- inhibition [20]: < 50%
- inhibition [21]: < 50%
- inhibition [22]: < 50%
- inhibition [23]: < 50%
- inhibition [24]: < 50%
- inhibition [25]: < 50%
- inhibition [26]: < 50%
- inhibition [27]: 81%
- inhibition [29]: 87%
- inhibition [30]: < 50%
- inhibition [31]: < 50%
- inhibition [32]: < 50%
- inhibition [33]: < 50%
- inhibition [35]: < 50%
- inhibition [36]: 51%
- inhibition [37]: < 50%
- inhibition [38]: < 50%
- IC50 (NIH3T3): 98 nM
- inhibition [39]: < 50%
- inhibition [40]: < 50%
- inhibition [41]: < 50%
- inhibition [42]: 30%
- Activity (Mus musculus [43]): 59%
- permeability (Caco-2): 28%
- inhibition [44]: < 50%
- inhibition [45]: < 50%
- inhibition [46]: < 50%

SMILES: CN(C)CC(=O)Nc1ccc2c(-c3c(-c4ccccn4)nn4c3CCC4)ccnc2c1
- AUC [47]: 398 ng·h/mL
